From ChEMBL document CHEMBL5034013, “Discovery of VNRX-7145 (VNRX-5236 Etzadroxil): An Orally Bioavailable β-Lactamase Inhibitor for Enterobacterales Expressing Ambler Class A, C, and D Enzymes” (J Med Chem, 2021)

Tests used:
[1] = Metabolic stability in Beagle dog liver S9 fraction assessed as half life at 3 uM measured after 2 hrs in absence of NADPH by UPLC-MS/MS analysis; format: ADME, subcellular, Canis lupus familiaris; conditions: s9, 2 h
[2] = Metabolic stability in CD-1 mouse intestinal S9 fraction assessed as half life measured at 3 uM after 2 hrs in absence of NADPH by UPLC-MS/MS analysis; format: ADME, subcellular, Intestine; conditions: s9, 2 h
[3] = Metabolic stability in CD-1 mouse liver S9 fraction assessed as half life measured at 3 uM after 2 hrs in presence of NADPH by UPLC-MS/MS analysis; format: ADME, subcellular; conditions: s9, 2 h
[4] = Apparent permeability across basolateral to apical side in human Caco-2 cells at 5 uM measured after 2 hrs by LC-MS/MS method; format: ADME, cell-based; conditions: caco-2, 2 h
[5] = Metabolic stability in Cynomolgus monkey intestinal S9 fraction assessed as half life at 3 uM measured after 2 hrs in absence of NADPH by UPLC-MS/MS analysis; format: ADME, subcellular, Macaca fascicularis, Intestine; conditions: s9, 2 h
[6] = Metabolic stability in human intestinal S9 fraction assessed as half life at 3 uM measured after 2 hrs in presence of NADPH by UPLC-MS/MS analysis; format: ADME, subcellular, Intestine; conditions: s9, 2 h
[7] = Metabolic stability in Cynomolgus monkey liver S9 fraction assessed as half life at 3 uM measured after 2 hrs in presence of NADPH by UPLC-MS/MS analysis; format: ADME, subcellular, Macaca fascicularis; conditions: s9, 2 h
[8] = Drug metabolism in Beagle dog hepatocytes assessed as (R)-2-hydroxy-3-propionamido-3,4-dihydro-2H-benzo[e][1,2]oxaborinine-8-carboxylic acid formation at 2 to 20 uM incubated for 240 mins by UPLC-HR-MS/MS analysis; format: ADME, cell-based, Canis lupus familiaris, Hepatocyte; conditions: 4 h, dose 2-20 µM
[9] = Metabolic stability in human liver S9 fraction assessed as half life at 3 uM measured after 2 hrs in presence of NADPH by UPLC-MS/MS analysis; format: ADME, subcellular; conditions: s9, 2 h
[10] = Efflux ratio of apparent permeability from basolateral to apical side over apical to basolateral side in human Caco-2 cells at 5 uM measured after 2 hrs by LC-MS/MS method; format: ADME, cell-based; conditions: caco-2, 2 h
[11] = Drug metabolism in human hepatocytes assessed as (R)-2-hydroxy-3-propionamido-3,4-dihydro-2H-benzo[e][1,2]oxaborinine-8-carboxylic acid formation at 2 to 20 uM incubated for 240 mins by UPLC-HR-MS/MS analysis; format: ADME, cell-based, Hepatocyte; conditions: 4 h, dose 2-20 µM
[12] = Drug metabolism in mouse hepatocytes assessed as (R)-2-hydroxy-3-propionamido-3,4-dihydro-2H-benzo[e][1,2]oxaborinine-8-carboxylic acid formation at 2 to 20 uM incubated for 240 mins by UPLC-HR-MS/MS analysis; format: ADME, cell-based, Hepatocyte; conditions: 4 h, dose 2-20 µM
[13] = Metabolic stability in Sprague-Dawley rat intestinal S9 fraction assessed as half life at 3 uM measured after 2 hrs in absence of NADPH by UPLC-MS/MS analysis; format: ADME, subcellular, Intestine; conditions: s9, 2 h
[14] = Metabolic stability in Beagle dog intestinal S9 fraction assessed as half life at 3 uM measured after 2 hrs in absence of NADPH by UPLC-MS/MS analysis; format: ADME, subcellular, Canis lupus familiaris, Intestine; conditions: s9, 2 h
[15] = Metabolic stability in Sprague-Dawley rat liver S9 fraction assessed as half life at 3 uM measured after 2 hrs in absence of NADPH by UPLC-MS/MS analysis; format: ADME, subcellular; conditions: s9, 2 h
[16] = Metabolic stability in human intestinal S9 fraction assessed as half life at 3 uM measured after 2 hrs in absence of NADPH by UPLC-MS/MS analysis; format: ADME, subcellular, Intestine; conditions: s9, 2 h
[17] = Metabolic stability in CD-1 mouse liver S9 fraction assessed as half life measured at 3 uM after 2 hrs in absence of NADPH by UPLC-MS/MS analysis; format: ADME, subcellular; conditions: s9, 2 h
[18] = Apparent permeability across apical to basolateral side in human Caco-2 cells at 5 uM measured after 2 hrs by LC-MS/MS method; format: ADME, cell-based; conditions: caco-2, 2 h
[19] = Metabolic stability in Beagle dog liver S9 fraction assessed as half life at 3 uM measured after 2 hrs in presence of NADPH by UPLC-MS/MS analysis; format: ADME, subcellular, Canis lupus familiaris; conditions: s9, 2 h
[20] = Drug metabolism in Cynomolgus monkey hepatocytes assessed as (R)-2-hydroxy-3-propionamido-3,4-dihydro-2H-benzo[e][1,2]oxaborinine-8-carboxylic acid formation at 2 to 20 uM incubated for 240 mins by UPLC-HR-MS/MS analysis; format: ADME, cell-based, Macaca fascicularis, Hepatocyte; conditions: 4 h, dose 2-20 µM
[21] = Metabolic stability in Cynomolgus monkey intestinal S9 fraction assessed as half life at 3 uM measured after 2 hrs in presence of NADPH by UPLC-MS/MS analysis; format: ADME, subcellular, Macaca fascicularis, Intestine; conditions: s9, 2 h
[22] = Metabolic stability in Beagle dog plasma assessed as half life at 3 uM measured after 2 hrs by UPLC-MS/MS analysis; format: ADME, cell-free, Canis lupus familiaris
[23] = Metabolic stability in Sprague-Dawley rat plasma assessed as half life at 3 uM measured after 2 hrs by UPLC-MS/MS analysis; format: ADME, cell-free
[24] = Metabolic stability in Beagle dog intestinal S9 fraction assessed as half life at 3 uM measured after 2 hrs in presence of NADPH by UPLC-MS/MS analysis; format: ADME, subcellular, Canis lupus familiaris, Intestine; conditions: s9, 2 h
[25] = Metabolic stability in human plasma assessed as half life at 3 uM measured after 2 hrs by UPLC-MS/MS analysis; format: ADME, cell-free
[26] = Drug metabolism in rat hepatocytes assessed as (R)-2-hydroxy-3-propionamido-3,4-dihydro-2H-benzo[e][1,2]oxaborinine-8-carboxylic acid formation at 2 to 20 uM incubated for 240 mins by UPLC-HR-MS/MS analysis; format: ADME, cell-based, Hepatocyte; conditions: 4 h, dose 2-20 µM
[27] = Metabolic stability in Sprague-Dawley rat liver S9 fraction assessed as half life at 3 uM measured after 2 hrs in presence of NADPH by UPLC-MS/MS; format: ADME, subcellular; conditions: s9, 2 h
[28] = Metabolic stability in Cynomolgus monkey liver S9 fraction assessed as half life at 3 uM measured after 2 hrs in absence of NADPH by UPLC-MS/MS analysis; format: ADME, subcellular, Macaca fascicularis; conditions: s9, 2 h
[29] = Metabolic stability in Sprague-Dawley rat intestinal S9 fraction assessed as half life at 3 uM measured after 2 hrs in presence of NADPH by UPLC-MS/MS analysis; format: ADME, subcellular, Intestine; conditions: s9, 2 h
[30] = Drug metabolism in rabbit hepatocytes assessed as (R)-2-hydroxy-3-propionamido-3,4-dihydro-2H-benzo[e][1,2]oxaborinine-8-carboxylic acid formation at 2 to 20 uM incubated for 240 mins by UPLC-HR-MS/MS analysis; format: ADME, cell-based, Oryctolagus cuniculus, Hepatocyte; conditions: 4 h, dose 2-20 µM
[31] = Metabolic stability in Cynomolgus monkey plasma assessed as half life at 3 uM measured after 2 hrs by UPLC-MS/MS analysis; format: ADME, cell-free, Macaca fascicularis
[32] = Metabolic stability in CD-1 mouse plasma assessed as half life at 3 uM measured after 2 hrs by UPLC-MS/MS analysis; format: ADME, cell-free

t1/2 [1]: 0.7 min
t1/2 [2]: 1.1 min
t1/2 [3]: 1.2 min
Papp [4]: 29.4 10^-6 cm/s
t1/2 [5]: 10.1 min
t1/2 [6]: 2.9 min
t1/2 [7]: 0.8 min
Drug metabolism [8]: Metabolite_Detected
t1/2 [9]: 1 min
Ratio [10]: 3.2
Drug metabolism [11]: Metabolite_Detected
Drug metabolism [12]: Metabolite_Detected
t1/2 [13]: 4 min
t1/2 [14]: 119 min
t1/2 [15]: 2.8 min
t1/2 [16]: 3.3 min
t1/2 [17]: 1.3 min
Papp [18]: 9.22 10^-6 cm/s
t1/2 [19]: 0.5 min
Drug metabolism [20]: Metabolite_Detected
t1/2 [21]: 11.2 min
t1/2 [22]: 43.9 min
t1/2 [23]: 1.6 min
t1/2 [24]: 49 min
t1/2 [25]: 10.7 min
Drug metabolism [26]: Metabolite_Detected
t1/2 [27]: 2.3 min
t1/2 [28]: 0.9 min
t1/2 [29]: 3.9 min
Drug metabolism [30]: Metabolite_Detected
t1/2 [31]: 22 min
t1/2 [32]: 4.6 min
Compound: CCC(=O)N[C@H]1Cc2cccc(C(=O)OCOC(=O)C(CC)CC)c2OB1O [LEDABORBACTAM ETZADROXIL]
